Experimental data reported in PubChem BioAssay (NCI).
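Following 48 hours of exposure in 96-well plates, responses at five concentrations were used to interpolate endpoints linearly. The concentration for full growth arrest is given as TGI.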

Tests used:
Assay in all cases: NCI anticancer screen, dose series, 48 h
SK-MEL-5 melanoma = tested on: SK-MEL-5 melanoma
U251 CNS = tested on: U251 CNS
CAKI-1 renal = tested on: CAKI-1 renal
ACHN renal = tested on: ACHN renal
DU-145 prostate = tested on: DU-145 prostate
HCT-116 colon = tested on: HCT-116 colon
SN12C renal = tested on: SN12C renal
OVCAR-3 ovarian = tested on: OVCAR-3 ovarian
SNB-75 CNS = tested on: SNB-75 CNS
HCT-15 colon = tested on: HCT-15 colon
T-47D breast = tested on: T-47D breast
A549 NSCLC = tested on: A549 NSCLC
HT29 colon = tested on: HT29 colon
KM12 colon = tested on: KM12 colon
LOX IMVI melanoma = tested on: LOX IMVI melanoma
HOP-92 NSCLC = tested on: HOP-92 NSCLC
MDA-N = tested on: MDA-N
HOP-62 NSCLC = tested on: HOP-62 NSCLC
NCI-H460 lung = tested on: NCI-H460 lung
MDA-MB-231 breast = tested on: MDA-MB-231 breast
BT-549 breast = tested on: BT-549 breast
MCF7 breast = tested on: MCF7 breast
CCRF-CEM leukemia = tested on: CCRF-CEM leukemia
SW-620 colon = tested on: SW-620 colon
RXF 393 renal = tested on: RXF 393 renal
NCI-H522 lung = tested on: NCI-H522 lung
UO-31 renal = tested on: UO-31 renal
COLO 205 colon = tested on: COLO 205 colon
EKVX NSCLC = tested on: EKVX NSCLC
SF-295 CNS = tested on: SF-295 CNS
TK-10 renal = tested on: TK-10 renal
RPMI-8226 leukemia = tested on: RPMI-8226 leukemia
NCI-H23 lung = tested on: NCI-H23 lung
A498 renal = tested on: A498 renal
SK-MEL-2 melanoma = tested on: SK-MEL-2 melanoma
UACC-62 melanoma = tested on: UACC-62 melanoma
OVCAR-5 ovarian = tested on: OVCAR-5 ovarian
SF-539 CNS = tested on: SF-539 CNS
M14 melanoma = tested on: M14 melanoma
K-562 leukemia = tested on: K-562 leukemia
SK-OV-3 ovarian = tested on: SK-OV-3 ovarian
UACC-257 melanoma = tested on: UACC-257 melanoma
786-0 renal = tested on: 786-0 renal
IGROV1 ovarian = tested on: IGROV1 ovarian
HL-60(TB) leukemia = tested on: HL-60(TB) leukemia
SR leukemia = tested on: SR leukemia
HCC-2998 colon = tested on: HCC-2998 colon
HS 578T breast = tested on: HS 578T breast
SF-268 CNS = tested on: SF-268 CNS
NCI/ADR-RES ovarian = tested on: NCI/ADR-RES ovarian
SNB-19 CNS = tested on: SNB-19 CNS
MALME-3M melanoma = tested on: MALME-3M melanoma
SK-MEL-28 melanoma = tested on: SK-MEL-28 melanoma
PC-3 prostate = tested on: PC-3 prostate
OVCAR-8 ovarian = tested on: OVCAR-8 ovarian
MOLT-4 leukemia = tested on: MOLT-4 leukemia
MDA-MB-435 = tested on: MDA-MB-435
NCI-H226 lung = tested on: NCI-H226 lung
OVCAR-4 ovarian = tested on: OVCAR-4 ovarian

C=C1CC2(CC(c3ccccc3C)OC(c3ccccc3C)C2)OC1=O (stereo unspecified) showed a TGI (SK-MEL-5 melanoma) of 3.97 µM, a TGI (U251 CNS) of 25.9 µM and a TGI (CAKI-1 renal) of 4.26 µM. For the same compound, the TGI (ACHN renal) was 6.06 µM, the TGI (DU-145 prostate) was 24.6 µM and the TGI (HCT-116 colon) was 3.21 µM. For the same compound, the TGI (SN12C renal) was 4.42 µM, the TGI (OVCAR-3 ovarian) was 3.58 µM and the TGI (SNB-75 CNS) was 11.6 µM. For the same compound, the TGI (HCT-15 colon) was 3.86 µM, the TGI (T-47D breast) was 3.21 µM and the TGI (A549 NSCLC) was 19.4 µM. The TGI (HT29 colon) was 3.53 µM, the TGI (KM12 colon) was 6.06 µM and the TGI (LOX IMVI melanoma) was 3.05 µM. For the same compound, the TGI (HOP-92 NSCLC) was 3.18 µM, the TGI (MDA-N) was 3.32 µM and the TGI (HOP-62 NSCLC) was 26.8 µM. The TGI (NCI-H460 lung) was 14.2 µM, the TGI (MDA-MB-231 breast) was 3.17 µM and the TGI (BT-549 breast) was 4.09 µM. The TGI (MCF7 breast) was 3.87 µM, the TGI (CCRF-CEM leukemia) was 5.75 µM and the TGI (SW-620 colon) was 3.59 µM. It also gave a TGI (RXF 393 renal) of 3.88 µM, a TGI (NCI-H522 lung) of 3.23 µM and a TGI (UO-31 renal) of 11.3 µM. For the same compound, the TGI (COLO 205 colon) was 3.68 µM, the TGI (EKVX NSCLC) was 30.1 µM and the TGI (SF-295 CNS) was 29.4 µM. It also gave a TGI (TK-10 renal) of 4.14 µM, a TGI (RPMI-8226 leukemia) of 4.12 µM and a TGI (NCI-H23 lung) of 3.9 µM. For the same compound, the TGI (A498 renal) was 21.6 µM, the TGI (SK-MEL-2 melanoma) was 4.13 µM and the TGI (UACC-62 melanoma) was 3.23 µM. For the same compound, the TGI (OVCAR-5 ovarian) was 26.5 µM, the TGI (SF-539 CNS) was 3.1 µM and the TGI (M14 melanoma) was 3.02 µM. The TGI (K-562 leukemia) was 5.09 µM, the TGI (SK-OV-3 ovarian) was 24.2 µM and the TGI (UACC-257 melanoma) was 3.66 µM. It also gave a TGI (786-0 renal) of 4.74 µM, a TGI (IGROV1 ovarian) of 3.25 µM and a TGI (HL-60(TB) leukemia) of 11.6 µM. The TGI (SR leukemia) was over 26.8 µM, the TGI (HCC-2998 colon) was 5.82 µM and the TGI (HS 578T breast) was 5.43 µM. For the same compound, the TGI (SF-268 CNS) was 3.6 µM, the TGI (NCI/ADR-RES ovarian) was 14.3 µM and the TGI (SNB-19 CNS) was 30.8 µM. For the same compound, the TGI (MALME-3M melanoma) was 3.29 µM, the TGI (SK-MEL-28 melanoma) was 4.27 µM and the TGI (PC-3 prostate) was 5.78 µM. For the same compound, the TGI (OVCAR-8 ovarian) was 4.63 µM, the TGI (MOLT-4 leukemia) was 21.4 µM and the TGI (MDA-MB-435) was 3.13 µM. It also gave a TGI (NCI-H226 lung) of 18.7 µM and a TGI (OVCAR-4 ovarian) of 5.49 µM.
With CC1NCCC(CC(=O)O)C1CC(=O)O (stereo unspecified) the TGI (SK-MEL-5 melanoma) was over 100 µM, the TGI (U251 CNS) was over 100 µM and the TGI (CAKI-1 renal) was over 100 µM. It also gave a TGI (ACHN renal) of over 100 µM, a TGI (DU-145 prostate) of over 100 µM and a TGI (HCT-116 colon) of over 100 µM. It also gave a TGI (SN12C renal) of over 100 µM, a TGI (OVCAR-3 ovarian) of over 100 µM and a TGI (SNB-75 CNS) of over 100 µM. For the same compound, the TGI (HCT-15 colon) was over 100 µM, the TGI (T-47D breast) was over 100 µM and the TGI (A549 NSCLC) was over 100 µM. The TGI (HT29 colon) was over 100 µM, the TGI (KM12 colon) was over 100 µM and the TGI (LOX IMVI melanoma) was over 100 µM. The TGI (HOP-92 NSCLC) was over 100 µM, the TGI (MDA-N) was over 100 µM and the TGI (HOP-62 NSCLC) was over 100 µM. It also gave a TGI (NCI-H460 lung) of over 100 µM, a TGI (MDA-MB-231 breast) of over 100 µM and a TGI (BT-549 breast) of over 100 µM. It also gave a TGI (MCF7 breast) of over 100 µM, a TGI (CCRF-CEM leukemia) of over 100 µM and a TGI (SW-620 colon) of over 100 µM. The TGI (RXF 393 renal) was over 100 µM, the TGI (NCI-H522 lung) was over 100 µM and the TGI (UO-31 renal) was over 100 µM. The TGI (COLO 205 colon) was over 100 µM, the TGI (EKVX NSCLC) was over 100 µM and the TGI (SF-295 CNS) was over 100 µM. The TGI (TK-10 renal) was over 100 µM, the TGI (RPMI-8226 leukemia) was over 100 µM and the TGI (NCI-H23 lung) was over 100 µM. The TGI (A498 renal) was over 100 µM, the TGI (SK-MEL-2 melanoma) was over 100 µM and the TGI (UACC-62 melanoma) was over 100 µM. It also gave a TGI (OVCAR-5 ovarian) of over 100 µM, a TGI (M14 melanoma) of over 100 µM and a TGI (K-562 leukemia) of over 100 µM. The TGI (SK-OV-3 ovarian) was over 100 µM, the TGI (UACC-257 melanoma) was over 100 µM and the TGI (786-0 renal) was over 100 µM. For the same compound, the TGI (IGROV1 ovarian) was over 100 µM, the TGI (HL-60(TB) leukemia) was over 100 µM and the TGI (SR leukemia) was over 100 µM. The TGI (HCC-2998 colon) was over 100 µM, the TGI (HS 578T breast) was over 100 µM and the TGI (SF-268 CNS) was over 100 µM. The TGI (NCI/ADR-RES ovarian) was over 100 µM, the TGI (SNB-19 CNS) was over 100 µM and the TGI (MALME-3M melanoma) was over 100 µM. The TGI (SK-MEL-28 melanoma) was over 100 µM, the TGI (PC-3 prostate) was over 100 µM and the TGI (OVCAR-8 ovarian) was over 100 µM. The TGI (MDA-MB-435) was over 100 µM, the TGI (NCI-H226 lung) was over 100 µM and the TGI (OVCAR-4 ovarian) was over 100 µM.
